# Experimental data taken from the supplement of paper PMC10307832.
# Key:
# Test in all cases: relative viability (nuclei count vs DMSO), 5 days (fraction); higher = more cells survive
# [1] = compound: C1=CC2=C(C=C(C(=C2N=C1)O)N=NC3=CC4=C(C=C3)C=C(C=C4)S(=O)(=O)O)S(=O)(=O)O + C[C@]1(O)C[C@@H](c2nc(-c3ccc4ccc(-c5ccccc5)nc4c3)c3c(N)nccn32)C1 [Linsitinib] (partner 1 µM)
# Summary of the method: (§1)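 Values are medians from duplicate plates. Each reflects relative viability, defined as the nuclei count of treated wells over that of vehicle wells. Lung cancer cell lines in 1536-well plates were pin-tool dosed one day after seeding with one drug alone or with a fixed anchor-drug dose plus five library-drug doses (not always all listed) in √10 steps, then fixed, stained and imaged at 4× after 5 days.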
# [2] = compound: O=C(NC1CCNCC1)c1n[nH]cc1NC(=O)c1c(Cl)cccc1Cl [AT-7519] + Nc1nc2[nH]cc(CCc3ccc(C(=O)N[C@@H](CCC(=O)O)C(=O)O)cc3)c2c(=O)[nH]1 [Pemetrexed] (partner 0.2 µM)
# Summary of the method: as §1
# [3] = compound: O=C(NC1CCNCC1)c1n[nH]cc1NC(=O)c1c(Cl)cccc1Cl [AT-7519] + O=C(c1cc(Cc2n[nH]c(=O)c3ccccc23)ccc1F)N1CCN(C(=O)C2CC2)CC1 [Olaparib] (partner 8 µM)
# Summary of the method: as §1
# [4] = compound: O=C(NC1CCNCC1)c1n[nH]cc1NC(=O)c1c(Cl)cccc1Cl [AT-7519] + C[C@@H](Oc1cc(-c2cnn(C3CCNCC3)c2)cnc1N)c1c(Cl)ccc(F)c1Cl [Crizotinib] (partner 1 µM)
# Summary of the method: as §1
Cell Line,relative viability ([1]; first compound 0.253 µM),relative viability ([1]; first compound 2.53 µM),relative viability ([1]; first compound 8 µM),relative viability ([2]; first compound 0.01 µM),relative viability ([2]; first compound 0.03162 µM),relative viability ([2]; first compound 0.3162 µM),relative viability ([2]; first compound 1 µM),relative viability ([3]; first compound 0.01 µM),relative viability ([3]; first compound 0.03162 µM),relative viability ([3]; first compound 0.3162 µM),relative viability ([3]; first compound 1 µM),relative viability ([4]; first compound 0.01 µM),relative viability ([4]; first compound 0.03162 µM),relative viability ([4]; first compound 0.3162 µM),relative viability ([4]; first compound 1 µM),relative viability ([1]; first compound 0.08 µM),relative viability ([1]; first compound 0.8 µM)
LCLC-97TM1,0.194,0.196,0.18,0.182,0.156,0.152,0.165,0.284,0.264,0.355,0.294,0.334,0.254,0.328,0.191,,
NCI-H596,1.07,1.14,1.15,0.473,0.501,0.459,0.513,0.64,0.733,0.691,0.644,0.828,0.962,1.05,0.87,1.02,1.1
H3255,0.899,1.04,0.911,0.559,0.589,0.499,0.503,0.581,0.514,0.527,0.451,0.942,0.838,0.849,0.756,0.95,0.948
SK-MES-1,1.01,1.04,1.06,1.12,1.04,0.982,0.798,0.662,0.791,0.56,0.257,1.05,0.903,0.854,0.787,1.17,1.05
NCI-H1437,1.06,1.01,1.03,0.325,0.326,0.35,0.229,0.644,0.643,0.574,0.279,0.93,1.06,0.9,0.361,1.14,0.99
LU99A,0.559,0.528,0.522,0.215,0.199,0.165,0.198,0.278,0.247,0.228,0.229,0.579,0.539,0.517,0.357,0.613,0.552
HCC-827,0.912,0.935,0.927,0.301,0.247,0.276,0.243,0.635,0.815,0.659,0.54,0.895,0.945,0.862,0.855,1.01,0.934
LK-2,0.724,0.573,0.472,0.305,0.259,0.212,0.201,0.815,0.74,0.706,0.593,0.229,0.235,0.251,0.227,0.797,0.551
HCC-366,0.578,0.603,0.648,0.178,0.162,0.185,0.216,0.409,0.424,0.281,0.164,0.463,0.668,0.457,0.179,0.557,0.678
BEN,0.887,0.94,0.827,0.713,0.766,0.823,0.706,1.03,1.1,1.03,0.809,0.897,0.754,0.985,0.83,1.11,0.799
NCI-H23,0.446,0.722,0.578,0.563,0.734,0.591,0.494,0.368,0.265,0.327,0.173,0.544,0.446,0.543,0.318,0.625,0.63
201T,1.01,1.05,1.07,0.343,0.311,0.288,0.331,0.895,0.846,0.917,0.666,1.04,1.1,1.03,1.09,1.05,1
NCI-H460,0.809,0.889,0.665,0.0626,0.0564,0.0558,0.0636,0.367,0.456,0.315,0.18,0.858,0.9,0.608,0.0144,1.08,0.757
NCI-H661,0.57,0.498,0.512,0.945,0.953,0.99,0.262,0.775,0.834,0.762,0.251,0.978,1.22,1.16,1.04,0.74,0.489
HCC-15,0.874,0.897,0.878,0.217,0.225,0.205,0.204,0.712,0.772,0.73,0.355,0.864,0.718,0.741,0.502,0.978,0.788
LCLC-103H,1.04,1.15,1.09,0.461,0.476,0.437,0.401,0.763,0.805,0.834,0.833,1.05,1.08,0.999,1.27,1.2,1
NCI-H441,0.527,0.551,0.354,0.283,0.266,0.263,0.198,0.524,0.559,0.446,0.204,0.656,0.905,0.673,0.428,0.51,0.458
EPLC-272H,1.07,1.31,1.37,0.268,0.328,0.303,0.0761,0.604,0.591,0.606,0.0569,0.896,0.918,0.809,0.934,1.29,1.13
